Measurements taken from PubChem BioAssay AID1963826 (Molecular Pharmacology Branch, DTP, NCI, 2024).

Tested on: 926638-142-R-J1-PDC complex spheroid viability
Test: Anticancer human tumor 926638-142-R-J1-PDC patient-derived endometrial carcinoma cell line growth inhibition [POLQ]
Conditions: for IC50: curve of first compound; for viability, T/C: stronger effect = lower value
Description: Multicellular complex tumor spheroid response to Polymerase (POL) inhibitors (novobiocin, ART-558, RP6685) in combination with a variety of drugs and investigational agents in selected tumor cell lines
The POL inhibitors (novobiocin, ART-558, and RP6685) were evaluated both individually and in combination with standard of care and investigational anticancer small molecules within a complex spheroid model of solid tumors. . Complex spheroids include a stromal component modeled by human endothelial cells (HUVEC) and fibroblasts modeled by human mesenchymal stem cells (MSCs). The concentration ranges selected for each drug and investigational agent were based upon clinically achievable concentrations if the clinical Cmax of the agent was known.
Compounds. The drugs and investigational agents: novobiocin (NSC847541), ART-558 (NSC835418), RP-6685 (NSC848927), peposertib (NSC802822), ceralasertib (NSC780249), elimusertib (NSC800525), camonsertib (NSC841442), AZD-1390 (NSC803789), olaparib (NSC753686), talazoparib (NSC767125), rucaparib (NSC756644), sotorasib (NSC818433), MRTX-1133 (NSC836407), SN-38 (NSC673596), topotecan (NSC609699), epotoside (NSC141540), doxorubicin (NSC123127), gemcitabine (NSC613327), 5-fluorouracil (NSC19893), paclitaxel (NSC125973), vemurafenib (NSC761431), MSA-2 (NSC828583), SN-011 (NSC837082), adavosertib (NSC754352), prexasertib (NSC758257), carboplatin (NSC241240) and oxaliplatin (NSC266046), were obtained from the National Cancer Institute (NCI) Developmental Therapeutics Program Chemical Repository (21). The FDA-approved anticancer drug set is available from the Developmental Therapeutics Program at https://dtp.cancer.gov/organization/dscb/obtaining/. […] The stock solutions were prepared in dimethyl sulfoxide (DMSO, Sigma-Aldrich, St. Louis, MO, cat. D2650), except for the platinum compounds which were prepared in saline (Quality Biological, Gaithersburg, MD, cat. 114-055-101), at 800-fold the tested concentration and stored at -70 degrees C prior to their use. All drugs and investigational agents were tested over a range starting from a high concentration at or near the clinical Cmax and decreasing in half-log increments. If the clinical Cmax for an agent had not been determined, the highest concentration tested was 10 microM, except for SN-38, which was tested at a high concentration of 1 microM.
Cell Culture. All cells were maintained in an incubator at 37 degrees C and 5% CO2 with 95% humidity. The PDC lines were cultured according to standard operating procedures established by the NCI PDMR (https://pdmr.cancer.gov). Table 3 of the manuscript, lists the cell lines along with the number of the three cell types plated to form the mct-spheroids and media for tumor cell growth. After thawing, all PDC lines, except 997537-175-T-J1-PDC and 415267-285-R-J2-PDC, were cultured in Matrigel-coated flasks prepared with a working solution of 1X Ham's F-12 nutrient mix, without supplementation (Thermo Fisher Scientific, cat. 11765054), 100 U/mL penicillin-streptomycin (Thermo Fisher Scientific, cat. 15140122), and 2.5% Matrigel (Corning Inc., Corning, NY, cat. 354248) for the first three passages. The two PDC lines 997537-175-T-J1-PDC and 415267-285-R-J2-PDC were cultured on uncoated flasks. The 857933-349-R-J2-PDC line was cultured in 6C/Colon 1B media containing advanced DMEM/F-12 (Thermo Fisher Scientific, cat. 12634028), 10 mM HEPES (Thermo Fisher Scientific, cat. 15630080), 1X GlutaMAX supplement (Thermo Fisher Scientific, cat. 35050061), 0.1 mg/mL primocin (InvivoGen, San Diego, CA, cat. ant-pm-2), 10% defined fetal bovine serum, heat inactivated (HyClone Laboratories Inc., Logan, UT, cat. SH30070.03HI), 50% L-WRN conditioned media (ATCC, cat. CRL-3276), 1.25 mM N-Acetyl-L-cysteine (Sigma-Aldrich, cat. A9165), 10 mM nicotinamide (Sigma-Aldrich, cat. N0636), 1X B-27 supplement (Thermo Fisher Scientific, cat. 17504044), 1X N-2 supplement (Thermo Fisher Scientific, cat. […]
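Further: spheroids exposed to drugs for one week before readout.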
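Wherever viability, T/C is given: percent viability relative to DMSO vehicle control wells set as 100%.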

Which results are given for `CC(=O)O[C@H]1C(=O)[C@@]2(C)[C@H]([C@H](OC(=O)c3ccccc3)[C@]3(O)C[C@H](OC(=O)[C@H](O)[C@@H](NC(=O)c4ccccc4)c4ccccc4)C(C)=C1C3(C)C)[C@]1(OC(C)=O)CO[C@@H]1C[C@@H]2O` + COC1C(OC(N)=O)C(O)C(Oc2ccc3c(O)c(NC(=O)c4ccc(O)c(CC=C(C)C)c4)c(=O)oc3c2C)OC1(C)C?
IC50 (second compound 0.0316 µM): > 3000 nM; IC50 (second compound 0.1 µM): > 3000 nM; IC50 (second compound 0.316 µM): > 3000 nM; IC50 (second compound 1 µM): > 3000 nM; IC50 (second compound 3.16 µM): > 3000 nM; IC50 (second compound 10 µM): > 3000 nM; viability, T/C (second compound 0.0316 µM, first compound 0.00949 µM): 94.1%; viability, T/C (second compound 0.0316 µM, first compound 0.03 µM): 76.3%; viability, T/C (second compound 0.0316 µM, first compound 0.0949 µM): 65.2%; viability, T/C (second compound 0.0316 µM, first compound 0.3 µM): 58%; viability, T/C (second compound 0.0316 µM, first compound 0.949 µM): 62.3%; viability, T/C (second compound 0.0316 µM, first compound 3 µM): 51.4%; viability, T/C (second compound 0.1 µM, first compound 0.00949 µM): 89.5%; viability, T/C (second compound 0.1 µM, first compound 0.03 µM): 80.9%; viability, T/C (second compound 0.1 µM, first compound 0.0949 µM): 62.8%; viability, T/C (second compound 0.1 µM, first compound 0.3 µM): 49.9%; viability, T/C (second compound 0.1 µM, first compound 0.949 µM): 60.1%; viability, T/C (second compound 0.1 µM, first compound 3 µM): 59%; viability, T/C (second compound 0.316 µM, first compound 0.00949 µM): 75.5%; viability, T/C (second compound 0.316 µM, first compound 0.03 µM): 74.7%; viability, T/C (second compound 0.316 µM, first compound 0.0949 µM): 63.6%; viability, T/C (second compound 0.316 µM, first compound 0.3 µM): 58.2%; viability, T/C (second compound 0.316 µM, first compound 0.949 µM): 48.4%; viability, T/C (second compound 0.316 µM, first compound 3 µM): 63.4%; viability, T/C (second compound 1 µM, first compound 0.00949 µM): 81.4%; viability, T/C (second compound 1 µM, first compound 0.03 µM): 70%; viability, T/C (second compound 1 µM, first compound 0.0949 µM): 55.9%; viability, T/C (second compound 1 µM, first compound 0.3 µM): 53.1%; viability, T/C (second compound 1 µM, first compound 0.949 µM): 62%; viability, T/C (second compound 1 µM, first compound 3 µM): 51.8%; viability, T/C (second compound 3.16 µM, first compound 0.00949 µM): 86.5%; viability, T/C (second compound 3.16 µM, first compound 0.03 µM): 72.2%; viability, T/C (second compound 3.16 µM, first compound 0.0949 µM): 67%; viability, T/C (second compound 3.16 µM, first compound 0.3 µM): 57.6%; viability, T/C (second compound 3.16 µM, first compound 0.949 µM): 67%; viability, T/C (second compound 3.16 µM, first compound 3 µM): 54.7%; viability, T/C (second compound 10 µM, first compound 0.00949 µM): 94.6%; viability, T/C (second compound 10 µM, first compound 0.03 µM): 73.4%; viability, T/C (second compound 10 µM, first compound 0.0949 µM): 64.9%; viability, T/C (second compound 10 µM, first compound 0.3 µM): 52.1%; viability, T/C (second compound 10 µM, first compound 0.949 µM): 51.8%; viability, T/C (second compound 10 µM, first compound 3 µM): 60.4%

What does the source list for `CC[C@@]1(O)C(=O)OCc2c1cc1n(c2=O)Cc2cc3c(CN(C)C)c(O)ccc3nc2-1` + COC1C(OC(N)=O)C(O)C(Oc2ccc3c(O)c(NC(=O)c4ccc(O)c(CC=C(C)C)c4)c(=O)oc3c2C)OC1(C)C?
IC50 (second compound 0.0316 µM): > 100 nM; IC50 (second compound 0.1 µM): 86.5 nM; IC50 (second compound 0.316 µM): > 100 nM; IC50 (second compound 1 µM): 66.1 nM; IC50 (second compound 3.16 µM): 98.1 nM; IC50 (second compound 10 µM): 79.5 nM; viability, T/C (second compound 0.0316 µM, first compound 0.000316 µM): 102%; viability, T/C (second compound 0.0316 µM, first compound 0.001 µM): 92.5%; viability, T/C (second compound 0.0316 µM, first compound 0.00316 µM): 85.7%; viability, T/C (second compound 0.0316 µM, first compound 0.01 µM): 72.3%; viability, T/C (second compound 0.0316 µM, first compound 0.0316 µM): 70.9%; viability, T/C (second compound 0.0316 µM, first compound 0.1 µM): 47.7%; viability, T/C (second compound 0.1 µM, first compound 0.000316 µM): 80.4%; viability, T/C (second compound 0.1 µM, first compound 0.001 µM): 105%; viability, T/C (second compound 0.1 µM, first compound 0.00316 µM): 80.4%; viability, T/C (second compound 0.1 µM, first compound 0.01 µM): 75.7%; viability, T/C (second compound 0.1 µM, first compound 0.0316 µM): 72.1%; viability, T/C (second compound 0.1 µM, first compound 0.1 µM): 46.6%; viability, T/C (second compound 0.316 µM, first compound 0.000316 µM): 107%; viability, T/C (second compound 0.316 µM, first compound 0.001 µM): 106%; viability, T/C (second compound 0.316 µM, first compound 0.00316 µM): 77.9%; viability, T/C (second compound 0.316 µM, first compound 0.01 µM): 65.9%; viability, T/C (second compound 0.316 µM, first compound 0.0316 µM): 76.2%; viability, T/C (second compound 0.316 µM, first compound 0.1 µM): 54.6%; viability, T/C (second compound 1 µM, first compound 0.000316 µM): 83.4%; viability, T/C (second compound 1 µM, first compound 0.001 µM): 70.5%; viability, T/C (second compound 1 µM, first compound 0.00316 µM): 75.8%; viability, T/C (second compound 1 µM, first compound 0.01 µM): 73.2%; viability, T/C (second compound 1 µM, first compound 0.0316 µM): 60.8%; viability, T/C (second compound 1 µM, first compound 0.1 µM): 43.5%; viability, T/C (second compound 3.16 µM, first compound 0.000316 µM): 94.2%; viability, T/C (second compound 3.16 µM, first compound 0.001 µM): 93.7%; viability, T/C (second compound 3.16 µM, first compound 0.00316 µM): 82.5%; viability, T/C (second compound 3.16 µM, first compound 0.01 µM): 83.5%; viability, T/C (second compound 3.16 µM, first compound 0.0316 µM): 72.9%; viability, T/C (second compound 3.16 µM, first compound 0.1 µM): 48.6%; viability, T/C (second compound 10 µM, first compound 0.000316 µM): 84.8%; viability, T/C (second compound 10 µM, first compound 0.001 µM): 88.8%; viability, T/C (second compound 10 µM, first compound 0.00316 µM): 81.1%; viability, T/C (second compound 10 µM, first compound 0.01 µM): 71.1%; viability, T/C (second compound 10 µM, first compound 0.0316 µM): 73.8%; viability, T/C (second compound 10 µM, first compound 0.1 µM): 44.2%
